The text below walks through data of US8841284B2, “Compound having neurite-outgrowing activity” (Lead Chemical Co., Ltd, priority 2009, dated 2014).

The subject of data set [1] is rat fetus (viviparity 17 days) cerebral cortex neuron. The data set is described as follows: Neurite-outgrowing activity, rat fetus cerebral cortex neuron, poly-L-lysine-coated culture vessel. The settings on record: for Neurite Density / Neurite Length / Neurite Thickness: relative amount, basal medium = 1. It counts as cell-based. As for the experimental part:
Rat fetus (viviparity 17 days) cerebral cortex neuron (Sumitomo Bakelite Co., Ltd.)
From a frozen cerebral tissue, using an attached protocol and attached reagents, a cerebral cortex neuron was prepared, was cultured in an NSF-1 (neurotrophic factor; name of substance or the like is not disclosed)-added PNBM medium for 2 hours, and then in a PNBM medium containing the sample (the compound produced in Example 1).
The dissemination was performed with a neuron concentration of 2×10^5 cells/0.5 mL/well (24-well-plate).
(§1) The sample (the compound produced in Example 1) was dissolved in DMSO to prepare a 10 mM solution. The 10 mM solution was diluted with DMSO to prepare a 1 mM solution. Further dilution of the solution was performed with a PNBM medium.
(§2) Finally, sample-added media of 0.2 μM concentration and 1 μM concentration were prepared. With respect to the mNGF medium, a 5 ng/mL mNGF-added medium and a 25 ng/mL mNGF-added medium were prepared.
Culture in Poly-L-Lysine-Coated Culture Vessel
(§3) On the third day of the culture, the culture medium was exchanged. Photographs of a neuron on the fifth day of the culture are shown in the drawings (a photograph of a neuron on the fifth day of the culture in the basal medium (additive-free) is shown in FIG. 4; a photograph of a neuron on the fifth day of the culture in the neurotrophic factor (NSF-1)-added medium is shown in FIG. 5; and a photograph of a neuron on the fifth day of the culture in the sample-added medium (1 μM concentration) is shown in FIG. 6). Here, the number in Table 1 indicates a relative amount when the value in the basal medium (additive-free) is assumed to be 1.

The subject of data set [2] is rat spinal cord dorsal root ganglion neuron. The data set is described as follows: Neurite (axon)-outgrowing activity, rat spinal cord dorsal root ganglion neuron, laminin-coated culture vessel. The settings on record: 1 μM; second day of culture; FIG. 9. It counts as cell-based.
The test system is the same in data set [3]. The data set is described as above. The data set is classed as cell-based. The settings on record: fifth day of culture; for Neurite (axon) Density / Neurite (axon) Length / Neurite (axon) Thickness: relative amount, basal medium = 1. The method, then:
Rat spinal cord dorsal root ganglion (Takara Bio Inc.)
Laminin-coated: a well was coated with a culture supernatant containing laminin 5B to be used.
A spinal cord neuron in a frozen state was thawed according to the attached protocol and the neuron was cultured in an NSF-1-added PNBM medium for 2 hours and then in a PNBM medium containing the sample (the compound produced in Example 1).
The dissemination was performed with a spinal cord neuron concentration of 2.5×10^4 cells/0.1 mL/well (96-well-plate).
as §1, §2
Culture in Laminin-Coated Culture Vessel
A spinal cord neuron can easily outgrow a neurite (axon) and outgrows a neurite even in an additive-free medium.
as §3, with “FIG. 10;” for “FIG. 4;”, “FIG. 11;” for “FIG. 5;”, “FIG. 12).” for “FIG. 6).”, “Table 2” for “Table 1”

`C[C@@H]([C@H]1CC[C@H]2[C@@H]3CCc4cc(O)ccc4[C@H]3CC[C@]12C)[C@H]1CC=C(CO)C(=O)O1` [Example 1, 6-[1-(3-hydroxy-13-methyl-7,8,9,11,12,13,14,15,16,17-decahydro-6H-cyclopenta[a]phenanthren-17-yl)-ethyl]-3-hydroxymethyl-5,6-dihydropyran-2-one]: the melting point lay within 248 to 250 °C. Besides, in data set [1] (0.2 μM, fifth day of culture), the “Neurite Density” value is reported as 1, the “Neurite Length” value is 1 and the “Neurite Thickness” value stood at 1. Besides, in data set [1] (1 μM, fifth day of culture), the “neurite-outgrowing activity (in words)” value is listed as “has a neurite-outgrowing activity”, the “Neurite Density” value is reported as 1.5, the “Neurite Length” value was 2 and the “Neurite Thickness” value worked out at 2. In data set [1] (1 μM, second day of culture, FIG. 3), the “number of neurites (in words)” value is listed as “the number of neurites increased more than in the basal medium (additive-free), but less than in the neurotrophic factor (NSF-1)-added medium”. In data set [2], the “axon outgrowth (in words)” value is listed as “the axon outgrew more than in the basal medium (additive-free), but less than in the neurotrophic factor (NSF-1)-added medium”. In addition, in data set [3] (0.2 μM), the “Neurite (axon) Density” value worked out at 2, the “Neurite (axon) Length” value came out at 2 and the “Neurite (axon) Thickness” value is recorded as 1. Further, in data set [3] (1 μM), the “axon length and thickness (in words)” value was “the axon outgrew longer but did not become thicker”; the “Neurite (axon) Density” value is on record as 2; the “Neurite (axon) Length” value is 2.5; the “Neurite (axon) Thickness” value amounted to 1.

B1: NGF: mNGF2. 5S (alomone labs, PRODUCT#N-100), used as mNGF-added medium (protein, UniProt P01139 122-241, looked up)
Beta-nerve growth factor: SSTHPVFHMGEFSVCDSVSVWVGDKTTATDIKGKEVTVLAEVNINNSVFRQYFFETKCRASNPVESGCRGIDSKHWNSYCTTTHTFVKALTTDEKQAAWRFIRIDTACVCVLSRKATRRG
modifications: Beta-nerve growth factor
notes: mNGF2; 5S (alomone labs, PRODUCT#N-100), used as mNGF-added medium
On to B1, for which, in data set [1] (5 ng/mL, fifth day of culture), the “Neurite Density” value is 2, the “Neurite Length” value amounted to 2 and the “Neurite Thickness” value worked out at 2. Besides, in data set [1] (25 ng/mL, fifth day of culture), the “Neurite Density” value was 2.5, the “Neurite Length” value came out at 2 and the “Neurite Thickness” value amounted to 2. Also, in data set [3] (5 ng/mL), the “Neurite (axon) Density” value came out at 2, the “Neurite (axon) Length” value was determined as 2 and the “Neurite (axon) Thickness” value amounted to 1. Moreover, in data set [3] (25 ng/mL), the “Neurite (axon) Density” value was 2, the “Neurite (axon) Length” value was 3 and the “Neurite (axon) Thickness” value is 2.
